Source: ChEMBL document CHEMBL1137428, “Synthesis and monoamine transporter binding properties of 2,3-cyclo analogues of 3beta-(4'-aminophenyl)-2beta-tropanemethanol” (J Med Chem, 2006)

Assays:
[1] = target: Sodium-dependent dopamine transporter (Homo sapiens, UniProt Q01959); experiment: Displacement of [3H]WIN-35428 from human DAT
[2] = target: Sodium-dependent noradrenaline transporter (Homo sapiens, UniProt P23975); experiment: Displacement of [3H]nisoxetine from human NET
[3] = target: Sodium-dependent serotonin transporter (Homo sapiens, UniProt P31645); experiment: Displacement of [3H]paroxetine from human 5HTT
Sequence of Sodium-dependent serotonin transporter (P31645 whole entry): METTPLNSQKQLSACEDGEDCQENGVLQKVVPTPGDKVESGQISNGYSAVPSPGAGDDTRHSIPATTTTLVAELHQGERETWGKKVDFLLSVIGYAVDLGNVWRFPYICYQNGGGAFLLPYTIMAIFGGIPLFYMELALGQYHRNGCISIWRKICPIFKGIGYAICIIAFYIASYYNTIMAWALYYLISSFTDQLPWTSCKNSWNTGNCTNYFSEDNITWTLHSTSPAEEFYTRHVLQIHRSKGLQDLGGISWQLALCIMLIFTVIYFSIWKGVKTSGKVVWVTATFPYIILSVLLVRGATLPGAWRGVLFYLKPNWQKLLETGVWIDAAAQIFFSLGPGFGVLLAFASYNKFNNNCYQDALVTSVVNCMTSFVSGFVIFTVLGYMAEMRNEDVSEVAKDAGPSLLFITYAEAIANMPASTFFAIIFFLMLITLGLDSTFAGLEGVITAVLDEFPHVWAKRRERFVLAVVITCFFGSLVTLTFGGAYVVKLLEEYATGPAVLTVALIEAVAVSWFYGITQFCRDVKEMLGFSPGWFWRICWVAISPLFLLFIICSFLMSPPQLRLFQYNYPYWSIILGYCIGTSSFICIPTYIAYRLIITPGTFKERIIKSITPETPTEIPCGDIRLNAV

Sequence of Sodium-dependent dopamine transporter (Q01959 whole entry): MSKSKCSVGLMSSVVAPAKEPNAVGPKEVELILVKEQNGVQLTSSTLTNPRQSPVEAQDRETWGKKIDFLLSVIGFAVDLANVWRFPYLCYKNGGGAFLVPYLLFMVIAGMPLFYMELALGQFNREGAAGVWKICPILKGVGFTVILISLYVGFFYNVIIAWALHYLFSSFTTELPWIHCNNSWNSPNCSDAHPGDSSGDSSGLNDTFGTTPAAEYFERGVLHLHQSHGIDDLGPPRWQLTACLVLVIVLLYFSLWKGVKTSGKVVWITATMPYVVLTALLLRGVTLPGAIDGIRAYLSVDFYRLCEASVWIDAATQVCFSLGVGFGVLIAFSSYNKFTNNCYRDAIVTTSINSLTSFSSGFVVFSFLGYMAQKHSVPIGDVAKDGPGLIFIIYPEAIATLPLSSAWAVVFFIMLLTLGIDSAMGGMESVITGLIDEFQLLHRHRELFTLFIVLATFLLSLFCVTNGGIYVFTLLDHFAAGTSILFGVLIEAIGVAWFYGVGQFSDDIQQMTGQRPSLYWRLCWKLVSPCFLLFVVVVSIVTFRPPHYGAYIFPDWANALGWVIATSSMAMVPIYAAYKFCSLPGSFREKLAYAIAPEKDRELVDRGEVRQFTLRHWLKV
Sequence of Sodium-dependent noradrenaline transporter (P23975 whole entry): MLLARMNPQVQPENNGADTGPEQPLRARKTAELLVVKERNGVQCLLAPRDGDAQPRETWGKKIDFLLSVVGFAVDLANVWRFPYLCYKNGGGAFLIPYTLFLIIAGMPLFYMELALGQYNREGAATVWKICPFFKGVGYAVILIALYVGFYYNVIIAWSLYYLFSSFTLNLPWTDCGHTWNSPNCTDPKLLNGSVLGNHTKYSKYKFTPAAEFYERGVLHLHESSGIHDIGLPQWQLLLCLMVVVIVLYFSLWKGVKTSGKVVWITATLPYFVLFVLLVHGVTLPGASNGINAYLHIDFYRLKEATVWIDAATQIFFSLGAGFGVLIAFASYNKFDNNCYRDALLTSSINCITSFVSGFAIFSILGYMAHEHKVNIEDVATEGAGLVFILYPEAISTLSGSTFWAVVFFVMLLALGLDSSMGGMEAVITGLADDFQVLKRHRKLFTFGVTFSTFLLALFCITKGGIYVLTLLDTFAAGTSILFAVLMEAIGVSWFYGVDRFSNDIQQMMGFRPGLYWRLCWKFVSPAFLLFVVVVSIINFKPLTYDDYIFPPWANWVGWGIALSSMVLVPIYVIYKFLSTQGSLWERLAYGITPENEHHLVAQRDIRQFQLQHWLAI

## CN1C2CCC1C1COC(=O)CCCCCCCCC(=O)Nc3ccc(cc3)C1C2 (stereo not given)
[1]
  IC50: 130 nM
[2]
  IC50: 2800 nM
  Ki: 1400 nM
[3]
  IC50: 7.8 nM
  Ki: 1.9 nM

## CN1C2CCC1C1COC(=O)Cc3ccc(cc3)CC(=O)Nc3ccc(cc3)C1C2 (stereo not given)
[1]
  IC50: > 2000 nM
[2]
  Ki: > 2000 nM
[3]
  Ki: > 2000 nM

## CN1C2CCC1C1COC(=O)CCCCC(=O)Nc3ccc(cc3)C1C2 (stereo not given)
[1]
  IC50: 890 nM
[2]
  Ki: > 2000 nM
[3]
  IC50: > 2000 nM

## CN1C(=O)CCCCCCCCC(=O)OCC2C(CC3CCC2N3C)c2ccc1cc2 (stereo not given)
[1]
  IC50: 1920 nM
[2]
  Ki: > 2000 nM
[3]
  Ki: > 2000 nM

## CN1C2CCC1C1COC(=O)CCCCCC(=O)Nc3ccc(cc3)C1C2 (stereo not given)
[1]
  IC50: 3.8 nM
[2]
  IC50: 40 nM
  Ki: 20 nM
[3]
  IC50: 200 nM
  Ki: 50 nM

## CN1C2CCC1C1COC(=O)CCSCCC(=O)Nc3ccc(cc3)C1C2 (stereo not given)
[1]
  IC50: 170 nM
[2]
  IC50: 990 nM
  Ki: 500 nM
[3]
  IC50: 6730 nM
  Ki: 1650 nM

## CN1C2CCC1C1COC(=O)CCC3(CCC(=O)Nc4ccc(cc4)C1C2)c1ccccc1-c1ccccc13 (stereo not given)
[1]
  IC50: 290 nM
[2]
  IC50: 980 nM
  Ki: 490 nM
[3]
  IC50: > 2000 nM

## CN1CCCCCCCCCCCC(=O)OCC2C(CC3CCC2N3C)c2ccc1cc2 (stereo not given)
[1]
  IC50: 490 nM
[2]
  Ki: > 2000 nM
[3]
  IC50: 450 nM
  Ki: 110 nM

## CN1C2CCC1C1COC(=O)CCC(=O)CCC(=O)Nc3ccc(cc3)C1C2 (stereo not given)
[1]
  IC50: 160 nM
[2]
  IC50: 1400 nM
  Ki: 710 nM
[3]
  IC50: 5010 nM
  Ki: 1230 nM

## CN1C2CCC1C1COC(=O)CCCCCCCCCCC(=O)Nc3ccc(cc3)C1C2 (stereo not given)
[1]
  IC50: 390 nM
[2]
  IC50: 2320 nM
  Ki: 1160 nM
[3]
  IC50: 1200 nM
  Ki: 290 nM

## CN1CCCCCCCCCC(=O)OCC2C(CC3CCC2N3C)c2ccc1cc2 (stereo not given)
[1]
  IC50: 150 nM
[2]
  IC50: 2130 nM
  Ki: 1060 nM
[3]
  IC50: 380 nM
  Ki: 94 nM

## CN1C2CCC1C1COC(=O)CCCCCCC(=O)Nc3ccc(cc3)C1C2 (stereo not given)
[1]
  IC50: 70 nM
[2]
  IC50: 3040 nM
  Ki: 1520 nM
[3]
  IC50: 2090 nM
  Ki: 513 nM

## CN1C2CCC1C1COC(=O)CCCCCCCC(=O)Nc3ccc(cc3)C1C2 (stereo not given)
[1]
  IC50: 410 nM
[2]
  Ki: > 2000 nM
[3]
  Ki: > 2000 nM
